This passage reports IC50 results from ChEMBL document CHEMBL1147954, “Synthesis and antiproliferative activity of some novel derivatives of diospyrin, a plant-derived naphthoquinonoid” (Bioorg Med Chem, 2007).

The subject of one experiment is A-375. As to the kind of experiment: Cytotoxicity against human A375 cells after 24 hrs by MTT assay. In kind it is functional, cell-based. The note with it: A-375, 24 h. (Tetrazolium dyes change colour on reduction, which living cells bring about.)
The next experiment deals with HEp-2. Briefly: Cytotoxicity against human Hep2 cells after 24 hrs by MTT assay. The experiment is classed as functional, cell-based. The note with it: HEp-2, 24 h.
Experiment [1] can be described thus: Cytotoxicity against mouse EAC cells after 24 hrs by MTT assay. The experiment is classed as functional, cell-based. The note with it: Ehrlich.
The next experiment concerns PBMC. As to the kind of experiment: Cytotoxicity against human PBMCs after 24 hrs by MTT assay. The experiment is classed as cell-based.

SMILES strings stand for the structures. Some results are limits rather than exact numbers.

For orientation: IC50 means the concentration that inhibits the measured activity by half.

`COc1cc(C)cc2c1C(=O)C1OC1(c1c(C)cc3c(c1OC)C(=O)C1OC1C3=O)C2=O` (stereo unspecified): the IC50 in the experiment on A-375 was found to be 30 nM; in the experiment with HEp-2, 210 nM; in experiment [1], 90 nM; in the experiment with PBMC it was 98200 nM.
As to `COc1cc(C)cc2c1C(=O)C=C(c1c(C)cc3c(c1OC)C(=O)C(SCCO)=CC3=O)C2=O`, the IC50 was 190 nM with A-375, 1730 nM in the experiment with HEp-2, 260 nM in experiment [1] and 95500 nM with PBMC.
For `Cc1cc(O)c2c(c1)C(=O)C(c1c(C)cc3c(c1O)C(=O)C=CC3=O)=CC2=O` [DIOSPYRIN], in that order: 820 nM, 3580 nM, 840 nM and 78300 nM.
For the compound `COc1cc(C)cc2c1C(=O)C=C(c1c(C)cc3c(c1OC)C(=O)C(NCCO)=CC3=O)C2=O`, the IC50 with A-375 is 3180 nM; with HEp-2 it was 1410 nM; in experiment [1], 1070 nM; with PBMC, 21800 nM.
For `CCOc1cc(C)cc2c1C(=O)C=C(c1c(C)cc3c(c1OCC)C(=O)C=CC3=O)C2=O`, in that order: 1070 nM, 2390 nM, 580 nM and 55500 nM.
Turning to `CCOc1cc(C)cc2c(O)c(-c3c(C)cc4c(O)ccc(O)c4c3OCC)cc(O)c12`, the IC50 in the experiment with A-375 stood at 960 nM; in the experiment on HEp-2, 1670 nM; in experiment [1], 390 nM; in the experiment with PBMC, 59600 nM.
For `COc1cc(C)cc2c1C(=O)C=C(c1c(C)cc3c(c1OC)C(=O)C=CC3=O)C2=O`, the IC50 in the experiment with A-375 is 200 nM; in the experiment on HEp-2, 390 nM; in experiment [1] it was 650 nM; in the experiment on PBMC, 53300 nM.
For `CCOc1cc(C)cc2c1C(=O)C=C(c1c(C)cc3c(c1OCC)C(=O)C(NCCO)=CC3=O)C2=O`, in that order: 70 nM, 850 nM, 30 nM and 65400 nM.
For `COc1cccc2c1C(=O)c1c(O)c3c(c(O)c1C2=O)C[C@@](O)(C(=O)CO)C[C@@H]3O[C@H]1C[C@H](N)[C@H](O)[C@H](C)O1` [DOXORUBICIN], in that order: 10 nM, 420 nM, more than 10000 nM and 15500 nM.
